Experimental data from ChEMBL document CHEMBL5325461, “Effect of a new squalene synthase inhibitor on an ApoE-/- mouse model of atherosclerosis” (Bioorg Med Chem, 2023).
Active and inactive are the calls of the source. No cut-off for these calls is given here.

What was measured:
Mus musculus [1] = assay: Antiatherosclerotic activity in atherogenic western diet fed ApoE-/- C57BL/6 mouse model assessed as decrease in total cholesterol level in plasma at 56 umol/kg, ip administered twice daily for 3.5 months; type: functional, organism-based; conditions: dose 56.0 µmol/kg
Mus musculus [2] = assay: Antiatherosclerotic activity in atherogenic western diet fed ApoE-/- C57BL/6 mouse model assessed as decrease in LDL level in plasma at 56 umol/kg, ip administered twice daily for 3.5 months; type: functional, organism-based; conditions: dose 56.0 µmol/kg
[3] = Toxicity in western diet fed ApoE-/- C57BL/6 mouse model assessed as weight change at 56 umol/kg, ip administered twice daily for 3.5 months; type: organism-based; conditions: in vivo, 2555 h, dose 56 µmol/kg
Mus musculus [4] = assay: Antiatherosclerotic activity in atherogenic western diet fed ApoE-/- C57BL/6 mouse model assessed as effect on HDL/LDL index in plasma at 56 umol/kg, ip administered twice daily for 3.5 months; type: functional, organism-based; conditions: dose 56.0 µmol/kg
Mus musculus [5] = assay: Antihypercholesterolemic activity in atherogenic western diet fed SKH2 mouse model assessed as increase in HDL level at 56 umol/kg, ip administered twice daily for 3.5 months relative to control; type: functional; conditions: dose 56 µmol/kg, 2555 h
Mus musculus [6] = assay: Antihypercholesterolemic activity in atherogenic western diet fed SKH2 mouse model assessed as decrease in LDL level at 56 umol/kg, ip administered twice daily for 3.5 months relative to control; type: functional; design: scale not given: the % may be the effect or the level left; conditions: dose 56 µmol/kg, 2555 h
Mus musculus [7] = assay: Antihypercholesterolemic activity in atherogenic western diet fed SKH2 mouse model assessed as decrease in total cholesterol level at 56 umol/kg, ip administered twice daily for 3.5 months relative to control; type: functional; design: scale not given: the % may be the effect or the level left; conditions: dose 56 µmol/kg, 2555 h
Mus musculus [8] = assay: Antiatherosclerotic activity in atherogenic western diet fed ApoE-/- C57BL/6 mouse model assessed as decrease in total cholesterol level in plasma at 56 umol/kg, ip administered twice daily for 3.5 months relative to control; type: functional; design: scale not given: the % may be the effect or the level left; conditions: dose 56 µmol/kg, 2555 h
Mus musculus [9] = assay: Antiatherosclerotic activity in atherogenic western diet fed ApoE-/- C57BL/6 mouse model assessed as decrease in LDL level in plasma at 56 umol/kg, ip administered twice daily for 3.5 months relative to control; type: functional; design: scale not given: the % may be the effect or the level left; conditions: dose 56 µmol/kg, 2555 h
[10] = Hepatotoxicity in atherogenic western diet fed ApoE-/- C57BL/6 mouse model assessed as increase in SGOT level at 56 umol/kg, ip administered twice daily for 3.5 months; type: toxicity, organism-based; conditions: in vivo, 2555 h, dose 56 µmol/kg
[11] = Hepatotoxicity in atherogenic western diet fed ApoE-/- C57BL/6 mouse model assessed as increase in SGPT level at 56 umol/kg, ip administered twice daily for 3.5 months; type: toxicity, organism-based; conditions: in vivo, 2555 h, dose 56 µmol/kg
[12] = Hepatotoxicity in atherogenic western diet fed ApoE-/- C57BL/6 mouse model assessed as effect on ALP level at 56 umol/kg, ip administered twice daily for 3.5 months; type: toxicity, organism-based; conditions: in vivo, 2555 h, dose 56 µmol/kg
[13] = Hepatotoxicity in atherogenic western diet fed ApoE-/- C57BL/6 mouse model assessed as effect on GGT level at 56 umol/kg, ip administered twice daily for 3.5 months; type: toxicity, organism-based; conditions: in vivo, 2555 h, dose 56 µmol/kg
Mus musculus [14] = assay: Antioxidant activity in atherogenic western diet fed ApoE-/- C57BL/6 mouse model assessed as decrease in MDA level at 56 umol/kg, ip administered twice daily for 3.5 months relative to control; type: functional; design: scale not given: the % may be the effect or the level left; conditions: dose 56 µmol/kg, 2555 h
Mus musculus [15] = assay: Antihyperglycemic activity in atherogenic western diet fed ApoE-/- C57BL/6 mouse model assessed as decrease in glucose level at 56 umol/kg, ip administered twice daily for 3.5 months by glucometer analysis relative to control; type: functional; design: scale not given: the % may be the effect or the level left; conditions: dose 56 µmol/kg, 2555 h
[16] = Hepatotoxicity in atherogenic western diet fed ApoE-/- C57BL/6 mouse model assessed as edema at 56 umol/kg, ip administered twice daily for 3.5 months; type: toxicity, organism-based; conditions: in vivo, 2555 h, dose 56 µmol/kg
[17] = Hepatotoxicity in atherogenic western diet fed ApoE-/- C57BL/6 mouse model assessed as degeneration at 56 umol/kg, ip administered twice daily for 3.5 months; type: toxicity, organism-based; conditions: in vivo, 2555 h, dose 56 µmol/kg
Mus musculus [18] = assay: Antiatherosclerotic activity in atherogenic western diet fed ApoE-/- C57BL/6 mouse model assessed as reduction in atherosclerosis severity in ascending aorta at 56 umol/kg, ip administered twice daily for 3.5 months by H&E staining based analysis; type: functional, organism-based; conditions: dose 56.0 µmol/kg
Mus musculus [19] = assay: Antiatherosclerotic activity in atherogenic western diet fed ApoE-/- C57BL/6 mouse model assessed as reduction in lesion area in ascending aorta at 56 umol/kg, ip administered twice daily for 3.5 months by H&E staining based analysis; type: functional, organism-based; conditions: dose 56.0 µmol/kg
Mus musculus [20] = assay: Antiatherosclerotic activity in atherogenic western diet fed ApoE-/- C57BL/6 mouse model assessed as reduction in fat deposition in ascending aorta at 56 umol/kg, ip administered twice daily for 3.5 months by H&E staining based analysis; type: functional, organism-based; conditions: dose 56.0 µmol/kg
Mus musculus [21] = assay: Antiatherosclerotic activity in atherogenic western diet fed ApoE-/- C57BL/6 mouse model assessed as reduction in perimeter of ascending aorta covered by atheromatic spots/lesions at 56 umol/kg, ip administered twice daily for 3.5 months relative to control; type: functional; design: scale not given: the % may be the effect or the level left; conditions: dose 56 µmol/kg, 2555 h
Mus musculus [22] = assay: Antiatherosclerotic activity in atherogenic western diet fed ApoE-/- C57BL/6 mouse model assessed as reduction in area of ascending aorta covered by atheromatic spots/lesions at 56 umol/kg, ip administered twice daily for 3.5 months relative to control; type: functional; design: scale not given: the % may be the effect or the level left; conditions: dose 56 µmol/kg, 2555 h
Mus musculus [23] = assay: Antiatherosclerotic activity in atherogenic western diet fed ApoE-/- C57BL/6 mouse model assessed as reduction in atheromatic spots in aortic arch at 56 umol/kg, ip administered twice daily for 3.5 months by H&E staining based analysis; type: functional, organism-based; conditions: dose 56.0 µmol/kg
Mus musculus [24] = assay: Antiatherosclerotic activity in atherogenic western diet fed ApoE-/- C57BL/6 mouse model assessed as reduction in atheromatic lesions in aortic arch at 56 umol/kg, ip administered twice daily for 3.5 months by H&E staining based analysis; type: functional, organism-based; conditions: dose 56.0 µmol/kg
Mus musculus [25] = assay: Antiatherosclerotic activity in atherogenic western diet fed ApoE-/- C57BL/6 mouse model assessed as reduction in atheromatic spots in aortic sinus at 56 umol/kg, ip administered twice daily for 3.5 months by H&E staining based analysis; type: functional, organism-based; conditions: dose 56.0 µmol/kg
Mus musculus [26] = assay: Antiatherosclerotic activity in atherogenic western diet fed ApoE-/- C57BL/6 mouse model assessed as reduction in atheromatic lesions in aortic sinus at 56 umol/kg, ip administered twice daily for 3.5 months by H&E staining based analysis; type: functional, organism-based; conditions: dose 56.0 µmol/kg

Br.CN1CCOC(O)(c2ccc3c(c2)Sc2ccccc2N3)C1 (stereo unspecified)
Activity (Mus musculus [1]): Active
Activity (Mus musculus [2]): Active
Activity [3]: Non-Toxic
Activity (Mus musculus [4]): Active
Activity (Mus musculus [5]): >100%
Activity (Mus musculus [6]): 76%
Activity (Mus musculus [7]): 53%
Activity (Mus musculus [8]): 20%
Activity (Mus musculus [9]): 20%
Activity [10]: Non-Toxic
Activity [11]: Non-Toxic
Activity [12]: Non-Toxic
Activity [13]: Non-Toxic
Activity (Mus musculus [14]): 41%
Activity (Mus musculus [15]): 19%
Activity [16]: Non-Toxic
Activity [17]: Non-Toxic
Activity (Mus musculus [18]): Active
Activity (Mus musculus [19]): Active
Activity (Mus musculus [20]): Active
Activity (Mus musculus [21]): 70%
Activity (Mus musculus [22]): 55%
Activity (Mus musculus [23]): Active
Activity (Mus musculus [24]): Active
Activity (Mus musculus [25]): Active
Activity (Mus musculus [26]): Active
